Data reported in ChEMBL document CHEMBL3885861, “Open TG-GATES”.

Species: Rattus norvegicus
Assay: Open TG-GATES - Regimen: Single
Format: toxicity, organism-based, Sprague-Dawley
Parameters: regimen Single, gender Male, age 6 weeks
Conditions: in vivo, po, 300 mg/kg, route gavage, dose level Middle; for APTT / Bas / Eos / Fbg / Hb / Ht / Lym / MCH / MCHC / MCV / Mono / Neu / PT / Plat / RBC / Ret / WBC: tissue Blood; for KIDNEY_L / KIDNEY_R / KIDNEY_TOTAL: tissue Kidney; for LIVER: tissue Liver; for A/G / ALP / ALT / AST / BUN / CRE / Ca / Cl / DBIL / GLC / IP / K / LDH / Na / PL / RALB / TBIL / TC / TG / TP / gamma-GTP: tissue Plasma

CC(C)(S)[C@@H](N)C(=O)O [PENICILLAMINE]
TERMINAL_BW (3 h): 203.8 g | APTT (3 h): 16.5 s | Bas (3 h): 0% | Eos (3 h): 0.8% | Fbg (3 h): 315.2 mg/dL | Hb (3 h): 13.2 g/dL | Ht (3 h): 40.7% | Lym (3 h): 75.4% | MCH (3 h): 20.9 pg | MCHC (3 h): 32.3% | MCV (3 h): 64.7 fL | Mono (3 h): 3.8% | Neu (3 h): 19.4% | PT (3 h): 15.1 s | Plat (3 h): 123.1 x10_4/uL | RBC (3 h): 629.8 x10_4/ul | Ret (3 h): 9% | WBC (3 h): 73.3 x10_2/uL | KIDNEY_L (3 h): 0.8 g | KIDNEY_R (3 h): 0.9 g | KIDNEY_TOTAL (3 h): 1.7 g | LIVER (3 h): 8.6 g | A/G (3 h): 0.9 | ALP (3 h): 1102.4 IU/L | ALT (3 h): 43.6 IU/L | AST (3 h): 73.4 IU/L | BUN (3 h): 8.4 mg/dL | CRE (3 h): 0.2 mg/dL | Ca (3 h): 10.9 mg/dL | Cl (3 h): 106.2 meq/L | DBIL (3 h): 0.01 mg/dL | GLC (3 h): 175 mg/dL | IP (3 h): 8.4 mg/dL | K (3 h): 4.3 meq/L | LDH (3 h): 57.4 IU/L | Na (3 h): 142.6 meq/L | PL (3 h): 139.2 mg/dL | RALB (3 h): 2.5 g/dL | TBIL (3 h): 0.034 mg/dL | TC (3 h): 73.8 mg/dL | TG (3 h): 87.8 mg/dL | TP (3 h): 5.3 g/dL | gamma-GTP (3 h): 1 IU/L | TERMINAL_BW (6 h): 200.3 g | APTT (6 h): 14.8 s | Bas (6 h): 0% | Eos (6 h): 0.8% | Fbg (6 h): 313.6 mg/dL | Hb (6 h): 13.4 g/dL | Ht (6 h): 41.5% | Lym (6 h): 74.6% | MCH (6 h): 20.4 pg | MCHC (6 h): 32.3% | MCV (6 h): 63.4 fL | Mono (6 h): 3% | Neu (6 h): 20.6% | PT (6 h): 14.6 s | Plat (6 h): 121.5 x10_4/uL | RBC (6 h): 655.4 x10_4/ul | Ret (6 h): 8.7% | WBC (6 h): 87.9 x10_2/uL | KIDNEY_L (6 h): 0.9 g | KIDNEY_R (6 h): 0.9 g | KIDNEY_TOTAL (6 h): 1.8 g | LIVER (6 h): 8.2 g | A/G (6 h): 0.9 | ALP (6 h): 1066.8 IU/L | ALT (6 h): 36.6 IU/L | AST (6 h): 72 IU/L | BUN (6 h): 8.2 mg/dL | CRE (6 h): 0.2 mg/dL | Ca (6 h): 10.7 mg/dL | Cl (6 h): 106.2 meq/L | DBIL (6 h): 0.012 mg/dL | GLC (6 h): 182.8 mg/dL | IP (6 h): 9.5 mg/dL | K (6 h): 4.4 meq/L | LDH (6 h): 60.8 IU/L | Na (6 h): 142.8 meq/L | PL (6 h): 139.6 mg/dL | RALB (6 h): 2.5 g/dL | TBIL (6 h): 0.038 mg/dL | TC (6 h): 79.2 mg/dL | TG (6 h): 47.4 mg/dL | TP (6 h): 5.2 g/dL | gamma-GTP (6 h): 1 IU/L | TERMINAL_BW (9 h): 198.7 g | APTT (9 h): 16.2 s | Bas (9 h): 0% | Eos (9 h): 0.8% | Fbg (9 h): 304.8 mg/dL | Hb (9 h): 13.2 g/dL | Ht (9 h): 40.9% | Lym (9 h): 76.8% | MCH (9 h): 20.8 pg | MCHC (9 h): 32.2% | MCV (9 h): 64.4 fL | Mono (9 h): 3% | Neu (9 h): 18.6% | PT (9 h): 15.2 s | Plat (9 h): 120.8 x10_4/uL | RBC (9 h): 634.2 x10_4/ul | Ret (9 h): 8.9% | WBC (9 h): 73.6 x10_2/uL | KIDNEY_L (9 h): 0.9 g | KIDNEY_R (9 h): 0.9 g | KIDNEY_TOTAL (9 h): 1.7 g | LIVER (9 h): 7.7 g | A/G (9 h): 0.9 | ALP (9 h): 1040.2 IU/L | ALT (9 h): 32.8 IU/L | AST (9 h): 67 IU/L | BUN (9 h): 8 mg/dL | CRE (9 h): 0.2 mg/dL | Ca (9 h): 10.6 mg/dL | Cl (9 h): 107.2 meq/L | DBIL (9 h): 0.01 mg/dL | GLC (9 h): 175.4 mg/dL | IP (9 h): 9.9 mg/dL | K (9 h): 4 meq/L | LDH (9 h): 58 IU/L | Na (9 h): 142.8 meq/L | PL (9 h): 128.8 mg/dL | RALB (9 h): 2.5 g/dL | TBIL (9 h): 0.042 mg/dL | TC (9 h): 73.6 mg/dL | TG (9 h): 39.4 mg/dL | TP (9 h): 5.2 g/dL | gamma-GTP (9 h): 1 IU/L | TERMINAL_BW (24 h): 216.3 g | APTT (24 h): 15.1 s | Bas (24 h): 0.2% | Eos (24 h): 1% | Fbg (24 h): 290.8 mg/dL | Hb (24 h): 13.5 g/dL | Ht (24 h): 41.5% | Lym (24 h): 82.2% | MCH (24 h): 21.1 pg | MCHC (24 h): 32.5% | MCV (24 h): 64.7 fL | Mono (24 h): 3% | Neu (24 h): 12.6% | PT (24 h): 14 s | Plat (24 h): 123.4 x10_4/uL | RBC (24 h): 640.6 x10_4/ul | Ret (24 h): 8.3% | WBC (24 h): 101.5 x10_2/uL | KIDNEY_L (24 h): 0.9 g | KIDNEY_R (24 h): 0.9 g | KIDNEY_TOTAL (24 h): 1.8 g | LIVER (24 h): 10.1 g | A/G (24 h): 0.9 | ALP (24 h): 1515 IU/L | ALT (24 h): 39.2 IU/L | AST (24 h): 65.8 IU/L | BUN (24 h): 13.4 mg/dL | CRE (24 h): 0.2 mg/dL | Ca (24 h): 11.1 mg/dL | Cl (24 h): 105.6 meq/L | DBIL (24 h): 0.012 mg/dL | GLC (24 h): 172.4 mg/dL | IP (24 h): 8.2 mg/dL | K (24 h): 4.1 meq/L | LDH (24 h): 79.4 IU/L | Na (24 h): 144.2 meq/L | PL (24 h): 164.8 mg/dL | RALB (24 h): 2.6 g/dL | TBIL (24 h): 0.028 mg/dL | TC (24 h): 86.6 mg/dL | TG (24 h): 126 mg/dL | TP (24 h): 5.5 g/dL | gamma-GTP (24 h): 1.2 IU/L
